The record followed here is US8999995B2, “Isotopically enriched arylsulfonamide CCR3 antagonists” (Axikin Pharmaceuticals, Inc., priority 2010, dated 2015).

Data set [1] is described as follows: Pharmacokinetic studies in male CD1 mice (PO and IV dosing, plasma by HPLC and MS). The class given is in vivo, mouse. The following applies: for Cmax / AUC(0-inf): male, CD1, mouse. As to the method: Pharmacokinetic properties of compounds A1 and A2 were determined using 144 male CD1 mice, each approximately 25 g. Animals were acclimated for 2-3 days prior to study. Body weights of animals were measured for randomization. Animals were randomized into groups of 3 mice by body weights. Compounds A1 and A2 were provided at 2 mg/mL for oral dosing and 0.2 mg/mL for intravenous dosing. Each mouse received 100 μL of a test compound (or a body weight justified dose (5 mL/kg) via PO or IV on dosing days. Approximately 1.0 mL of the whole blood was collected for each animal via cardiac puncture at each time points. The blood was collected into lithium heparin tubes, processed to plasma, and snap frozen in dry ice. Plasma samples were stored at −80° C. before analysis. The samples were further analyzed by HPLC and MS.

The target in data set [2] is T1, CCR3 receptor (UniProt P51677).
T1 sequence (P51677 1-355): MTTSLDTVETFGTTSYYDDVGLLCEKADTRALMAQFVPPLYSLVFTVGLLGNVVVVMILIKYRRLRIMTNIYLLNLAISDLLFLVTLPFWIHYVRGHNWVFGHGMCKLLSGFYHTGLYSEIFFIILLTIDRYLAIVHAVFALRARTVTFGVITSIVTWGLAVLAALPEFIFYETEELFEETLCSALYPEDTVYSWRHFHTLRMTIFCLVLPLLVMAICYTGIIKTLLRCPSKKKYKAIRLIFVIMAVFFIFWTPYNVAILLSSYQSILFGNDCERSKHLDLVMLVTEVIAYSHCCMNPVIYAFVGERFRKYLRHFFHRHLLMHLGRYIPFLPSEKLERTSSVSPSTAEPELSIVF
Briefly: CCR3 receptor binding assay ([125I]-labeled human eotaxin/CCL11 displacement on cells). The following applies: 0.1 nM [125I]-labeled human eotaxin/CCL11, 60 min at room temperature. As for the experimental part:
Cells were washed once with PBS and resuspended in a binding buffer (25 mM HEPES pH 7.6, 5 mM MgCl2, 1 mM CaCl2, 0.5% BSA, 0.1% NaN3). […] of cell suspension (2×10^5 cells/well) and 0.1 nM [^125I]-labeled human eotaxin/CCL11 (2000 Ci/mmol specific activity) were mixed in a 96-well U-bottom polypropylene plate, and incubated for 60 min at room temperature for the binding reaction. The cell suspension was then transferred to a filtration plate (#MAFB, Millipore), and washed 3 times with the binding buffer containing 0.5 M NaCl, scintillant added, and the radioactivity was counted on a TopCount (Packard). For the determination of non-specific binding, the cell suspension and [^125I]-labeled human eotaxin/CCL11 were incubated in the presence of 500 nM of unlabeled human eotaxin/CCL11. See, Iino et al., “Molecular cloning and functional characterization of cynomolgus monkey (Macaca fascicularis) CC chemokine receptor, CCR3,” Cytokine 2002, 19, 276-286.

Read-outs that look alike come from different tables or passages of the source.

The Cmax is the highest concentration seen after dosing. In general, MRT refers to a mean duration of stay, worked out from the concentration-time curve. By half-life is commonly meant the time in which the quantity being followed falls by half. High values mean slow loss, low ones fast loss. A word on the bioavailability: it is dose-corrected exposure relative to a reference, in per cent. Read a high bioavailability as much systemic uptake. As a reminder, the Tmax is the time from dosing to the highest level. One may read the Ki as a measure of affinity in units of concentration, obtained from inhibition or displacement. High values mean weaker binding, low ones tighter binding. With `[2H]c1c([2H])c(Sc2cc(Cl)cc(Cl)c2)c(S(=O)(=O)N2CCN(C3CCCC3)CC2)c([2H])c1C#N` [Compound A1], the Cmax in data set [1] (oral, 10 mg/kg, 2 mg/mL oral, 0.2 mg/mL intravenous dosing, 5 mL/kg, read-out: Cmax) worked out at 149 ng/mL; in data set [1] (oral, 10 mg/kg, dose-normalised, read-out: Cmax,norm), 14.9 ng/mL. In addition, the AUC(0-inf) in data set [1] (oral, 10 mg/kg, AUCinf,norm, dose-normalised, heading: AUCinf,norm) came out at 106 ng·h/mL; in data set [1] (oral, 10 mg/kg, read-out: AUCinf), 1060 ng·h/mL. The compound also yielded a mean residence time (MRT) in data set [1] (mouse) of 6.9 h. In data set [1] (mouse), the half-life is 2.51 h. This compound returned a bioavailability in data set [1] (mouse, PO versus IV) of 31.8%. Also, the time to peak (Tmax) in data set [1] (mouse, oral, 10 mg/kg) was 0.5 h. The compound also registered an inhibition constant Ki in data set [2] of 5.4 nM.
